# Test results reported in ChEMBL document CHEMBL1201862, “PubChem BioAssay data set” (2004).
# Calls of active or inactive are those of the source.
# Key:
# [1] = target: T1, Cytochrome P450 2D6 (Homo sapiens, UniProt P10635); experiment: qHTS Assay for Inhibitors and Substrates of Cytochrome P450 2D6. [Related pubchem assays: 410 ]; format: ADME; settings: read-out: Potency
# [2] = target: T2, Oxysterols receptor LXR-beta (Homo sapiens, UniProt P55055); format: functional, cell-based;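 also: Cell-based luminescence dose-response assay of agonist activity at LXR, run as a confirmatory counterscreen to a daf-12 agonist screen; HEK293 cells with Gal4-LXR fusion and GAL4-driven luciferase reporter; agonist potency from rising luciferase signal of a Gal4-LXR reporter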
# T2 sequence (P55055 whole entry): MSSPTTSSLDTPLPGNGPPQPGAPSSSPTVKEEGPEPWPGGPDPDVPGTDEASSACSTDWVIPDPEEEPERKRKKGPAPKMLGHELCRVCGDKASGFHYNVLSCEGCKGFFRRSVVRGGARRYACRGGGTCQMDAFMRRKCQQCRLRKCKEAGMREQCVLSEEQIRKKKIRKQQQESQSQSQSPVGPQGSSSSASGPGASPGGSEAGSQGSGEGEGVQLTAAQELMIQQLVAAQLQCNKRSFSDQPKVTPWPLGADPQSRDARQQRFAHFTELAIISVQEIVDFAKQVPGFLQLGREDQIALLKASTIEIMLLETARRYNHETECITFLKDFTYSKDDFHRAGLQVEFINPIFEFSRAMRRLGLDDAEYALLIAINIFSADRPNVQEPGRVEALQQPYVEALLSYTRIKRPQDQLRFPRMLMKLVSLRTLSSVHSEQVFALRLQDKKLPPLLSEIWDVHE
# [3] = cells
# [4] = target: T3, Mucolipin-3 (Homo sapiens, UniProt Q8TDD5); experiment: Dose response cell-based high-throughput screening assay for agonists of the transient receptor potential channel ML3 (TRPML3). [Related pubchem assays: 1526, 1424, 1448 ]; format: functional
# T3 sequence (Q8TDD5 whole entry): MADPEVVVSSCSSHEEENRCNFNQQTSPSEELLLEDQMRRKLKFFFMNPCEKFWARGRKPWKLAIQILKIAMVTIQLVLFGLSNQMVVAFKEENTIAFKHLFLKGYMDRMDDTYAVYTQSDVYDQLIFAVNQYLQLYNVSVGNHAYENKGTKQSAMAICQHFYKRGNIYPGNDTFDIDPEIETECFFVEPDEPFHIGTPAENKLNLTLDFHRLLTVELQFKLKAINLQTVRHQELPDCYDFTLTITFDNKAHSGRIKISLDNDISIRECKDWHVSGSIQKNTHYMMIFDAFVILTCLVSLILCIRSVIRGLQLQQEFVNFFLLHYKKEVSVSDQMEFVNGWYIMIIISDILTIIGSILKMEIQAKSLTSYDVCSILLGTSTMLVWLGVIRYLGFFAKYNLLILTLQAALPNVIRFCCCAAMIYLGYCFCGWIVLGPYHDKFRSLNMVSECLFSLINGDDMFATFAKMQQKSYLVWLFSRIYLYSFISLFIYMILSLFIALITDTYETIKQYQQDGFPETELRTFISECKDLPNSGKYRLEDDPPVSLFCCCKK
# [5] = target: Ion channel NompC (Danio rerio, UniProt Q7T1G6); experiment: Fluorescence counterscreen assay for TRPML3 agonists: dose response cell-based high-throughput screening assay to identify agonists of the transient receptor potential channel N1 (TRPN1). [Related pubchem assays: 1526, 1424, 1448 ]; format: functional
# [6] = target: Kallikrein-7 (Homo sapiens, UniProt P49862); experiment: Fluorescence Intensity-based biochemical primary high throughput dose response assay to identify activators of kallikrein-7 (K7) zymogen.
# [7] = target: T4, Estrogen receptor beta (Homo sapiens, UniProt Q92731); experiment: ERβ–SRC-3 coactivator interaction inhibitors, confirmation, orthogonal assay, biochemical, ELISA, streptavidin-HRP readout (AID 1060)
# [8] = target: T4, Estrogen receptor beta
# [9] = target: Cytochrome P450 3A4 (Homo sapiens, UniProt P08684); settings: Potency;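 also: confirmatory qHTS run detecting inhibitors and substrates of CYP3A4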
# [10] = target: Ephrin type-A receptor 4 (Mus musculus, UniProt Q03137); experiment: inhibitors of EphA4 binding to KYL peptide, primary screen, biochemical, colorimetric, mouse EphA4 (AID 689); format: functional
# Chain of Ephrin type-A receptor 4 (Q03137 whole entry): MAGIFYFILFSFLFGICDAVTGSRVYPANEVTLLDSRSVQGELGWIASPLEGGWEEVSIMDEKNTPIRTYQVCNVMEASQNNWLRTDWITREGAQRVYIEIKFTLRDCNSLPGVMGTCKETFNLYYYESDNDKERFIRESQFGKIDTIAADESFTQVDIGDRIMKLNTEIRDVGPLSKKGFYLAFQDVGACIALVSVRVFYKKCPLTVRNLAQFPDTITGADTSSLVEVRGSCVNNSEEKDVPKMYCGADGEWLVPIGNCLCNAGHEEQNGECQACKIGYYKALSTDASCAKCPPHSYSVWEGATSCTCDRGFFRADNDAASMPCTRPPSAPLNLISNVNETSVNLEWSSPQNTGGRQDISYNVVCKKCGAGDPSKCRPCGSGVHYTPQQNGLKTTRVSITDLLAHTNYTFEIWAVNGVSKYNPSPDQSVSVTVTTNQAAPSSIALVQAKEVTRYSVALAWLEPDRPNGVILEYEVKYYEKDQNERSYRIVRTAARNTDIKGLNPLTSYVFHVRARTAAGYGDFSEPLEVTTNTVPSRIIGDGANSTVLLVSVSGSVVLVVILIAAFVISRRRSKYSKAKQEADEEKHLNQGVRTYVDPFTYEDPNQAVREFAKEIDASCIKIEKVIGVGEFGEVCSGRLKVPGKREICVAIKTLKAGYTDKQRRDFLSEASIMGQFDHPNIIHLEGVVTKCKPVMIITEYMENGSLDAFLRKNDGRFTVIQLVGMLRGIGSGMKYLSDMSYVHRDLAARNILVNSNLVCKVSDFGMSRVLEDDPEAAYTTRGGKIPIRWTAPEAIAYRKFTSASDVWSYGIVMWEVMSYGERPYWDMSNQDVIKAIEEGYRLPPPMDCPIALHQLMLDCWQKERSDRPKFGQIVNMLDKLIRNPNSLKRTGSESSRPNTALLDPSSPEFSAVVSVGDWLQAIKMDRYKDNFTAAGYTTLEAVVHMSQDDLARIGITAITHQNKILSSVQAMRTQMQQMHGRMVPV
# [11] = target: Peroxisome proliferator-activated receptor gamma/Nuclear receptor coactivator 2 (Homo sapiens, UniProt P37231); format: functional;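 also: agonist potency for raising coactivator recruitment to the receptor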
# Chain of Peroxisome proliferator-activated receptor gamma/Nuclear receptor coactivator 2 (P37231 whole entry): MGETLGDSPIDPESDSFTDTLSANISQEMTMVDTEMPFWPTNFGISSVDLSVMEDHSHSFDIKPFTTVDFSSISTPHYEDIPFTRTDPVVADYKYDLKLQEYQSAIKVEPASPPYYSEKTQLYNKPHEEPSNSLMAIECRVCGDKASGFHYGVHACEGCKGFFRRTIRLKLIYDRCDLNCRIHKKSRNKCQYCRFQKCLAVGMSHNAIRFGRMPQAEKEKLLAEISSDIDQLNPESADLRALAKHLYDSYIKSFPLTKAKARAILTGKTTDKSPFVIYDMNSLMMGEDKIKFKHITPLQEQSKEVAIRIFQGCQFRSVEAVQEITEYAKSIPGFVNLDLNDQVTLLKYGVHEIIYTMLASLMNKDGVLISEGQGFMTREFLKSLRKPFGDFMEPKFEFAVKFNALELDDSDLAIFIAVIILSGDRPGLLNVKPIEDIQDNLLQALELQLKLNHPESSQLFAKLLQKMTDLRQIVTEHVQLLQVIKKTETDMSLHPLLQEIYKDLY
# Chain of Peroxisome proliferator-activated receptor gamma/Nuclear receptor coactivator 2 (Q15596 whole entry, further chain): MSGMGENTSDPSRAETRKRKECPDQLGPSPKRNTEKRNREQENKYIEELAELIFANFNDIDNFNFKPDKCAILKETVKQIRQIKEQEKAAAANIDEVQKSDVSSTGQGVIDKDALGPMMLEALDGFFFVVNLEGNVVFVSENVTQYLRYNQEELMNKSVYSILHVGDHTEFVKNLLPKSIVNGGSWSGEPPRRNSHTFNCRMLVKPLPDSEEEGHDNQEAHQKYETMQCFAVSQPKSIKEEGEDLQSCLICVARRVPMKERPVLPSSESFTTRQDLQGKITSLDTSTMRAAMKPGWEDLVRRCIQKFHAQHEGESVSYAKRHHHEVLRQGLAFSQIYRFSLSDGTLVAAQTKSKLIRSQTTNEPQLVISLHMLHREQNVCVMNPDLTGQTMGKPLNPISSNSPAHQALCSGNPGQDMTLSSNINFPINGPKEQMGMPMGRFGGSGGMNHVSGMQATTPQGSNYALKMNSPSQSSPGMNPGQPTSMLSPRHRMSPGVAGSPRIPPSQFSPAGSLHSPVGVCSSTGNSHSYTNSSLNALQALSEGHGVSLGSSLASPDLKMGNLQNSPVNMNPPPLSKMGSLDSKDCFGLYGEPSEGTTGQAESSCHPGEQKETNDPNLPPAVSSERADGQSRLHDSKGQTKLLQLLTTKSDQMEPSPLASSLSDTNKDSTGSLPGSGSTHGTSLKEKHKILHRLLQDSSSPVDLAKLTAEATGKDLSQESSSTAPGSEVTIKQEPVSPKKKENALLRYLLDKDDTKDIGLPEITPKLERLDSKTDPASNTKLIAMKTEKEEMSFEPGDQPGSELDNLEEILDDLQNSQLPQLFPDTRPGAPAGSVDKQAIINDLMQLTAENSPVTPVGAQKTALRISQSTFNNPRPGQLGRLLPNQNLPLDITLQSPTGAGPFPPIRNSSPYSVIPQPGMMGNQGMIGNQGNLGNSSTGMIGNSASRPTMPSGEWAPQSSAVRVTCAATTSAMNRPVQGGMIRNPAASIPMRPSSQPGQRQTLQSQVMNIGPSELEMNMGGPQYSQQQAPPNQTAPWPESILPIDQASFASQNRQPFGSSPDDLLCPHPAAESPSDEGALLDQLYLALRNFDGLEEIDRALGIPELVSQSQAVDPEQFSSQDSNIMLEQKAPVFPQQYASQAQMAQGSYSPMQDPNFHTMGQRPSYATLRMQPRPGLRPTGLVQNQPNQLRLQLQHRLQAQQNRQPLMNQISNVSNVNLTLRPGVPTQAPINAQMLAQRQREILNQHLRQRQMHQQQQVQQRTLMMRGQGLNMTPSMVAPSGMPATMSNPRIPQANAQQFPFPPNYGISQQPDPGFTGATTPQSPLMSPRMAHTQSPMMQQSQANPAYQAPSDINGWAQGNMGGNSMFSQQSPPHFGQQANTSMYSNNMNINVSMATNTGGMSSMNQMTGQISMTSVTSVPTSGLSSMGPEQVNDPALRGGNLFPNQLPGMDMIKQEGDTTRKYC
# [12] = target: Peroxisome proliferator-activated receptor gamma/Nuclear receptor coactivator 3 (Homo sapiens, UniProt P37231); format: functional;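 also: agonist potency for raising coactivator recruitment to the receptor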
# [13] = target: Peroxisome proliferator-activated receptor gamma/Nuclear receptor coactivator 1 (Homo sapiens, UniProt P37231); format: functional;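 also: agonist potency as compounds enhance coactivator SRC-1 recruitment to PPARgamma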
# Chain of Peroxisome proliferator-activated receptor gamma/Nuclear receptor coactivator 1 (P37231 whole entry): as the sequence (P37231 whole entry) above
# Chain of Peroxisome proliferator-activated receptor gamma/Nuclear receptor coactivator 1 (Q15788 whole entry, further chain): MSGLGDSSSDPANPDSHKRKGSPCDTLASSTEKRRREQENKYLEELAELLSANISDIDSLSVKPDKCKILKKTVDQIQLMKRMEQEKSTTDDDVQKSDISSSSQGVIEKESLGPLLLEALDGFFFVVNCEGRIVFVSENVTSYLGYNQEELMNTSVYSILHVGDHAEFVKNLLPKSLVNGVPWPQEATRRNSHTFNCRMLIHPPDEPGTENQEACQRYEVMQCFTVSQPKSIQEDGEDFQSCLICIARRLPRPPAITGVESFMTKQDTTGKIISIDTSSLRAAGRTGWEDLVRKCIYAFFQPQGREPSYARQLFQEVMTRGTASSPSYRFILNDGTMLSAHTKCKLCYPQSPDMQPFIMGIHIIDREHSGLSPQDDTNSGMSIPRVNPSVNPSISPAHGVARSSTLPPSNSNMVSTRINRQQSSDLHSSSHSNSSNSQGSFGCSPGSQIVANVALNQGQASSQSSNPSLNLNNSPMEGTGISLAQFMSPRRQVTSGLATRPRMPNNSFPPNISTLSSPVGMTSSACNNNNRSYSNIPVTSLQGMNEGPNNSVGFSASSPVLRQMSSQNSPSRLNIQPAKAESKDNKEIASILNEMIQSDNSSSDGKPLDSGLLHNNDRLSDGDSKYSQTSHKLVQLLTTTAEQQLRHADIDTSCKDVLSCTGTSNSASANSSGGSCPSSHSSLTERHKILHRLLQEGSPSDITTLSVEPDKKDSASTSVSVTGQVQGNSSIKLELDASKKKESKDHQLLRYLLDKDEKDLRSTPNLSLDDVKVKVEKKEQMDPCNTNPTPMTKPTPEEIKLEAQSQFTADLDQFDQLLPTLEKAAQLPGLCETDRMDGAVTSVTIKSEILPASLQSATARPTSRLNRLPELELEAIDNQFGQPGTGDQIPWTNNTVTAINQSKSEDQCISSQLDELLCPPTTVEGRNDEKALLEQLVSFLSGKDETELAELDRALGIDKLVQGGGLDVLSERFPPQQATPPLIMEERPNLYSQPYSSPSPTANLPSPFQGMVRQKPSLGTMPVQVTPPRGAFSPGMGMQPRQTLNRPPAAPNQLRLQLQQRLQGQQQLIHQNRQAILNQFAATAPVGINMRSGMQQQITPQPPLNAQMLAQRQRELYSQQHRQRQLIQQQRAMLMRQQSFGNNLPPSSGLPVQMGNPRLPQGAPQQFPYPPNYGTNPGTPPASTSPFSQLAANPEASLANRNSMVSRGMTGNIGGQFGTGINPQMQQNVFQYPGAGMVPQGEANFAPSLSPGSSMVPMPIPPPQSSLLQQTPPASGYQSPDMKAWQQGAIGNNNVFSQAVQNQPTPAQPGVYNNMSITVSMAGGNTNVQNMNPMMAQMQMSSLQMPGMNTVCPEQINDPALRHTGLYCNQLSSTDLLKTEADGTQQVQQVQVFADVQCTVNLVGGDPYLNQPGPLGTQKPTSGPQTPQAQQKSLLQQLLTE
# [14] = system: H9c2; experiment: cells; format: functional, cell-based; settings: Rattus norvegicus, H9c2, Myocardium;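 also: confirmatory concentration-response retest of ultra-high-throughput screening hits for modulation of myocardial damage; cell death induced by hydrogen peroxide oxidative stress; compound pretreatment for 60 min then peroxide exposure for 2 h; potency is for protecting the cells against peroxide damage rather than for killing them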
# [15] = Luminescence Cell-Based Dose Confirmation HTS to Identify Inhibitors of Platelet Dense Granule Release. [Related pubchem assays: 1663 (Primary HTS), 1678 (Summary of Project)]; format: functional
# [16] = target: Luciferin 4-monooxygenase (Photinus pyralis, UniProt P08659); experiment: firefly luciferase enzyme inhibitors, dose response, biochemical, luminescence (AID 1891)
# [17] = target: T5, Heat shock factor protein 1 (Mus musculus, UniProt P38532); experiment: HSF1 potentiators in luciferase reporter cells, confirmation, cell-based, NIH3T3, luminescence, dose retest (AID 435004); format: functional;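 also: stress induced by proteasome inhibitor MG132 added 30 min after compound; luciferase reporter driven by HSF1 response element in NIH3T3 cells; actives raise luminescence as potentiators of the MG132 stress response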
# T5 sequence (P38532 whole entry): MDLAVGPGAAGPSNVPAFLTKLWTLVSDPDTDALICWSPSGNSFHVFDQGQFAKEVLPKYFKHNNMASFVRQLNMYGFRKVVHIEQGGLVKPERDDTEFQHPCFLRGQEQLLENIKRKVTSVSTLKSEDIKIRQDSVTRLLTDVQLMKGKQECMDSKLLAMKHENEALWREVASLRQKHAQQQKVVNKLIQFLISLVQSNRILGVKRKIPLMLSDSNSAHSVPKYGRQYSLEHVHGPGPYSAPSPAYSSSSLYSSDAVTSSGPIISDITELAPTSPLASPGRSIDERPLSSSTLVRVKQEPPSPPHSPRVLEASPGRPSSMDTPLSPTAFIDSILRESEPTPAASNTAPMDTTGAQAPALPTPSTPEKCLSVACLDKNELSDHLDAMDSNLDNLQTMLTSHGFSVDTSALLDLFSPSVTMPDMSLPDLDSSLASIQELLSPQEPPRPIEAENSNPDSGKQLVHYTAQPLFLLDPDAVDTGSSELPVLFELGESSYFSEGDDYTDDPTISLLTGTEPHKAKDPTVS
# [18] = target: Protein-tyrosine kinase 2-beta (Homo sapiens, UniProt Q14289);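 also: potency of inhibitors of PYK2 kinase phosphorylation of poly-GT substrate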
# [19] = target: T6, Carboxy-terminal domain RNA polymerase II polypeptide A small phosphatase 1 (Homo sapiens, UniProt Q9GZU7); experiment: inhibitors of CTDSP1, concentration-response testing, biochemical assay, absorbance-based, actives from ultra-high-throughput screening (AID 540297); format: functional
# T6 sequence (Q9GZU7 whole entry): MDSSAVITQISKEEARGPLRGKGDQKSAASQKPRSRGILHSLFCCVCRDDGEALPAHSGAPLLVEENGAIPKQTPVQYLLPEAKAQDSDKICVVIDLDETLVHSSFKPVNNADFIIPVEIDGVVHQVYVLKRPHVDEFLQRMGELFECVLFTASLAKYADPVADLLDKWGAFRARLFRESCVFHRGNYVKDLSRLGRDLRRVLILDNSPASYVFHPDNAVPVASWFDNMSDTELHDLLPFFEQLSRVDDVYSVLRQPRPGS
# [20] = target: T7, Caspase-6 (Homo sapiens, UniProt P55212); experiment: human caspase-6 inhibitors, dose response, biochemical, VEID-R110 fluorescence, cherry-pick (AID 720632)
# T7 sequence (P55212 whole entry): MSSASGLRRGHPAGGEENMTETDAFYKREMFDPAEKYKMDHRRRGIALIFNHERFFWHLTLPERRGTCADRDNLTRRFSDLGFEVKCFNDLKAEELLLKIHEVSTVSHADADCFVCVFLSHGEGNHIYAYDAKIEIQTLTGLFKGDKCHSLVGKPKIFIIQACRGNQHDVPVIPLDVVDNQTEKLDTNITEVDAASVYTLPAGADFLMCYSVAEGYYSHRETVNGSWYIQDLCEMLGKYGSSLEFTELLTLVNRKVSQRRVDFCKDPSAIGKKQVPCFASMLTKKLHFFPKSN
# [21] = Artemis endonuclease inhibitor potency, dose response, biochemical, fluorescence intensity (AID 720701); format: functional;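 also: Artemis endonuclease enzyme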
# [22] = cytotoxicity toward NIH3T3 fibroblasts, dose response, counter-screen, cell-based, ATP luminescence, mouse fibroblasts (AID 2010); format: functional;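 also: cells exposed to compound for about 90 hours before reading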
# [23] = inhibitors of intracellular T. cruzi replication, confirmation, NIH3T3 host cells, beta-gal luminescence (AID 2044); format: functional, cell-based;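 also: intracellular parasites grown in NIH/3T3 mouse fibroblasts as host cells; luminescent beta-galactosidase reporter signal from transgenic T. cruzi replicating inside host cells; inhibitors lower the luminescence signal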
# [24] = system: Streptococcus sp. 'group A'; experiment: growth inhibition of control SK(-) GAS strain, dose response, counter-screen for streptokinase expression inhibitor project, luminescence, kanamycin, BacTiterGlo, confirmation (AID 1900); format: functional, organism-based
# [25] = system: Streptococcus; experiment: Group A Streptococcus viability loss, dose response, counter-screen for streptokinase expression inhibitor project, luminescence, BacTiterGlo (AID 1915); format: functional, organism-based;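 also: potency for reduction of bacterial viability or growth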
# [26] = target: T8, Streptokinase A (Streptococcus pyogenes serotype M1, UniProt P10520); experiment: S. pyogenes streptokinase expression inhibitors, potency, dose response, plasminogen activation absorbance, OD405 (AID 1914); format: functional, Streptococcus pyogenes M1 GAS;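 also: secreted streptokinase activity via plasminogen activation per viability signal from cell pellet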
# T8 sequence (P10520 whole entry): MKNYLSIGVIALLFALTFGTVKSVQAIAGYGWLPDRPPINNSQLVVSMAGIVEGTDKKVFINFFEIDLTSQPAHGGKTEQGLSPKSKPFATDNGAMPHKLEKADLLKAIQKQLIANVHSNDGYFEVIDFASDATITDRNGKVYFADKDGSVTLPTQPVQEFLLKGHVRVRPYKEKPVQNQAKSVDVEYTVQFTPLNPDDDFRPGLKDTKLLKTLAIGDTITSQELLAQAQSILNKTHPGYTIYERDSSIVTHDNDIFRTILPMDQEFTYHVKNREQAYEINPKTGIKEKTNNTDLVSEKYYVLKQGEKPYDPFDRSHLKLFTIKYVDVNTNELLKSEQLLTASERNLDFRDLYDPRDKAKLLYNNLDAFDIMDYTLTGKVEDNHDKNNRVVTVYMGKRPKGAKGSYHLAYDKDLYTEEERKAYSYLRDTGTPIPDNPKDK
# [27] = target: Cytochrome P450 2C19 (Homo sapiens, UniProt P33261); experiment: Cytochrome panel assay with activity outcomes. Panel member name: p450-cyp2c19 Compounds with AC50 equal or less than 10 uM are considered active; format: functional; settings: read-out: AC50
# [28] = target: T1, Cytochrome P450 2D6
structure (smiles),measurement,setting,value
O=C(CCCN1CCC2(CC1)C(=O)N(CCc1ccc(N=C=S)cc1)CN2c1ccccc1)c1ccc(F)cc1,AC50,[1],15.8 µM (inconclusive)
CC1CCCCN1C(=O)CSc1nnc(-c2ccccc2O)o1 (centres undefined),EC50,[2],> 67.5 µM (inactive)
same,EC50,[3],> 67.5 µM (inactive)
Cc1onc(-c2ccccc2)c1C(=O)N(Cc1ccco1)Cc1cccs1,EC50,[4],12.4 µM (not active)
same,EC50,[5],> 29.9 µM (not active)
CCC(NC(=O)CCc1c(C)c2cc3c(C)c(C)oc3cc2oc1=O)C(=O)N[C@@H](Cc1ccccc1)C(=O)O (some centres undefined),EC50,[6],> 69.5 µM (inactive)
CC(=O)NC12CC3CC(C1)CC(C(=O)OCC(=O)Nc1ncc(Cl)c(C)c1Cl)(C3)C2,IC50,[7],< 0.023 µM (not active)
same,IC50,[8],9.36 µM (active)
COc1ccc(S(=O)(=O)NC2CCCCC2)c(C)c1C,EC50,[4],> 3.32 µM (not active)
same,EC50,[5],> 29.9 µM (not active)
CC12C=C(/C=C/c3ccccc3)C(C)(C1)C(c1ccccc1)CC2=O (centres undefined),AC50,[1],3.16 µM (inconclusive)
same,AC50,[9],3.16 µM (inconclusive)
Cc1ccc(S(=O)(=O)/C(C#N)=C/c2c(N3CCOCC3)nc3ccccn3c2=O)cc1,IC50,[10],> 100 µM (not active)
O=C(Nc1ccc2oc(-c3ccncc3)nc2c1)c1c(F)c(F)c(F)c(F)c1F,EC50,[11],25.6 µM (not active)
same,EC50,[12],28.9 µM (not active)
same,EC50,[13],25.8 µM (not active)
N#CC(c1nc2ccccc2nc1N1CCCC1)S(=O)(=O)c1cccs1 (centres undefined),IC50,[14],> 79 µM (inactive)
same,IC50,[10],> 100 µM (not active)
Cc1ccc(N=Nc2cc(C)ccc2N)cc1,EC50,[2],> 67.5 µM (inactive)
same,EC50,[15],3.15 µM (active)
same,EC50,[3],> 67.5 µM (inactive)
same,EC50,[16],0.149 µM (active)
Cc1csc(C(C#N)C(=O)c2ccncc2)n1 (centres undefined),EC50,[11],> 79.4 µM (not active)
same,IC50,[7],> 109 µM (not active)
same,EC50,[12],> 79.4 µM (not active)
same,IC50,[8],13.9 µM (active)
same,EC50,[13],> 79.4 µM (not active)
Cc1ccc(-c2nc(O)c3sccc3n2)cc1,EC50,[2],> 67.5 µM (inactive)
same,EC50,[3],> 67.5 µM (inactive)
CCOC(=O)c1sc2c(c1C)C(c1cccs1)C1=C(O)CCCC1=N2 (centres undefined),EC50,[17],80.5 µM (active)
same,IC50,[18],> 69.5 µM (not active)
CC1CCC2(CC1)NC(=O)N(CC(=O)Nc1sc3c(c1C(N)=O)CCC3)C2=O (centres undefined),IC50,[19],3.44 µM (active)
same,AC50,[20],10.9 µM (active)
CCSC1=N/C(=C\c2ccc(-c3ccccc3[N+](=O)[O-])o2)C(=O)S1,IC50,[21],0.967 µM (active)
same,IC50,[10],> 100 µM (not active)
CCC(=O)NC(=S)Nc1ccc(NC(=S)NC(=O)c2ccccc2)cc1,EC50,[11],> 79.4 µM (not active)
same,EC50,[22],> 60 µM (not active)
same,EC50,[23],0.553 µM (active)
same,EC50,[12],> 79.4 µM (not active)
same,EC50,[24],1.23 µM (active)
same,EC50,[25],38 µM (active)
same,EC50,[13],> 79.4 µM (not active)
same,EC50,[26],> 150 µM (not active)
CC1(C)Cc2cccc(Oc3ccc(S(=O)(=O)N4CCCCC4)cn3)c2O1,EC50,[4],9.27 µM (active)
same,EC50,[5],> 29.9 µM (not active)
CC(C)(C)c1cc(/C=N/NC(=O)Cc2nc3ccccc3[nH]2)cc(C(C)(C)C)c1O,IC50,[21],> 20 µM (inactive)
Cc1cc2nc3c(=O)[nH]c(=O)nc-3n(CC(O)C(O)C(O)CO)c2cc1C (centres undefined) [RIBOFLAVIN],AC50,[1],31.6 µM (inconclusive)
same,AC50,[27],6.31 µM (inconclusive)
same,AC50,[28],12.6 µM (inconclusive)
